Values quoted from earlier work as cited in patent US6635277B2, “Composition for pulsatile delivery of diltiazem and process of manufacture” (Wockhardt Limited, priority 2000, dated 2003).

Details: in 0.1N HCl

Fraction ionized: 10%
Compound: CCCCCCCCCCCCOS(=O)(=O)[O-].[Na+] [sodium lauryl sulfate]
